Key:
Assay type in all cases: cell-based
Geotrichum candidum = assay: Liquid fungal growth assay in 96-well plates, Geotrichum candidum; settings: combinations 1:1 w/w
Protocol: For each 96 well plate, three separate additions were made to each well. First, 100 μl of potato dextrose broth w/100 ppm chloramphenicol was added. […] Finally, 50 μl of DI H2O was added to the blank plate (the plate intended to be left blank for an OD reference) OR 50 μl of 10^5 fungal inoculum was added to each well in its respective plate(s). […] The plates were then covered with lids and placed at 20° C. for 3 days of incubation. After the incubation period, the growth of each well in each plate was rated by optical density at 600 nm using a PerkinElmer Victor plate-reader using the setting “MIC Settings @600 (0.1 s)” that can be found in the Wallac® Victor® software. The results were also roughly assessed visually as cloudy wells (partial growth) appearing in the dilution series where the sample fell off in activity. After an OD was obtained for each well, the relative growth was determined by the following calculation: [(Treatment w/Bacteria)-(Treatment w/o Bacteria)/(Diluent Control w/Bacteria)-(Diluent Control w/o Bacteria)]×100. The positive control wells for bacterial growth were considered acceptable if the average and standard deviation of the OD readings at 600 nm were well above the range of the non-inoculated OD reference wells. […] Synergy was then determined by Gowing's Equation, set forth above. […]

Penicillium expansum = assay: Liquid fungal growth assay in 96-well plates, Penicillium expansum
Protocol: The effect of (i) natamycin (Haorui Pharma-Chem. Inc.), (ii) a crude extract of lipopeptides from Bacillus subtilis QST713 (prepared as described in Example 1), and (iii) a combination of natamycin and a crude extract of lipopeptides on Penicillium expansum was investigated. A liquid fungal growth assay was performed in 96-well plates to determine whether the combination of lipopeptides and natamycin is synergistic in inhibiting fungal growth. All procedures were conducted aseptically.
For each 96 well plate, three separate additions were made to each well. First, 100 μl of potato dextrose broth w/100 ppm chloramphenicol was added. […]
After the incubation period, the growth of each well in each plate was rated by optical density at 600 nm using a PerkinElmer Victor plate-reader using the setting “MIC Settings @600 (0.1 s)” that can be found in the Wallac® Victor® software. The results were also roughly assessed visually as cloudy wells (partial growth) appearing in the dilution series where the sample fell off in activity.
After an OD was obtained for each well, the relative growth was determined by the following calculation: [(Treatment w/Bacteria)−(Treatment w/o Bacteria)/(Diluent Control w/Bacteria)−(Diluent Control w/o Bacteria)]×100. […]
Synergy was then determined by Gowing's Equation, set forth above. […]

[1] = system: Saccharomyces cerevisiae wild-type strain BY4742; assay: Saccharomyces cerevisiae liquid culture growth (OD vs untreated control), Example 1; settings: 16 hours at 30° C.
Protocol: A combination of lipopeptides and natamycin was tested for efficacy against Saccharomyces cerevisiae, which is generally recognized as a model organism for testing activity against fungi and which is closely related to Candida. See Smits, G J, et al., “Stress Tolerance in Fungi—To Kill a Spoilage Yeast,” Current Opin Biotechnol., 16(2): 225-30, (2005) and Castrillo, J I, et al., “Yeast as a Touchstone in Post-Genomic Research: Strategies for Integrative Analysis in Functional Genomics,” J Biochem Mol Biol., 37(1): 93-106, (2004).
Saccharomyces cerevisiae wild-type strain BY4742 was grown in liquid YPD in the presence of: (1) natamycin (Haorui Pharma-Chem Inc), (2) the above-described lipopeptide extract, (3) natamycin+lipopeptide extract, and 4) no lipopeptides or natamycin (control). The initial concentration of natamycin before being added to the liquid culture was 1 ppm and the initial concentration of lipopeptide extract was 15 ppm. Final concentration of natamycin in the liquid culture was 0.08 ppm and final concentration of lipopeptide extract was 1.12 ppm, such that the weight to weight ratio of natamycin to lipopeptide in the sample containing both was 1:14. […]
Gowing's Equation was applied, as follows, to determine synergism of lipopeptides with natamycin. […] Thus, X and Y are calculated by subtracting the amount of growth on a treated plate from 100, as shown below. […]

[2] = system: Geotrichum citri-aurantii; assay: Liquid fungal growth assay in 96-well plates, Geotrichum citri-aurantii; settings: each component 2.23 ppm final, combinations 1:1 w/w
Protocol: For each 96 well plate, three separate additions were made to each well. First, 100 μl of potato dextrose broth w/100 ppm chloramphenicol was added. Then 25 μl of each sample (lipopeptides, natamycin, or combo from dilution plate) was supplemented. Finally, 50 μl of DI H2O was added to the blank plate (the plate intended to be left blank for an OD reference) OR 50 μl of 10^5 fungal inoculum was added to each well in its respective plate(s). […] The plates were then covered with lids and placed at 20° C. for 3 days of incubation. After the incubation period, the growth of each well in each plate was rated by optical density at 600 nm using a PerkinElmer Victor plate-reader using the setting “MIC Settings @600 (0.1 s)” that can be found in the Wallac® Victor® software. The results were also roughly assessed visually as cloudy wells (partial growth) appearing in the dilution series where the sample fell off in activity. After an OD was obtained for each well, the relative growth was determined by the following calculation: [(Treatment w/Bacteria)-(Treatment w/o Bacteria)/(Diluent Control w/Bacteria)-(Diluent Control w/o Bacteria)]×100. The positive control wells for bacterial growth were considered acceptable if the average and standard deviation of the OD readings at 600 nm were well above the range of the non-inoculated OD reference wells. […]

Saccharomyces cerevisiae = assay: Liquid fungal growth assay in 96-well plates (YPD), Saccharomyces cerevisiae; settings: combinations 1:1 w/w

| SMILES | % of Growth of the Given Compound(s) at 2.23 ppm (Geotrichum candidum; natamycin series, each component 2.23 ppm final) | Percent Growth (Penicillium expansum; 1.1 ppm final of each component, 3 days at 20° C., OD 600 nm) | % of Growth of the Given Compound(s) at 2.23 ppm (Penicillium expansum; each component 2.23 ppm final, combinations 1:1 w/w) | inhibition at 0.08 ppm ([1]; Saccharomyces cerevisiae, natamycin 0.08 ppm, lipopeptide extract 1.12 ppm final, read-out: growth inhibition (X, Y, Eob = 100 − growth)) | growth (OD) normalized to untreated control set at 100% ([1]; natamycin 0.08 ppm final, lipopeptide extract 1.12 ppm final (1:14 w/w), liquid YPD) | % of Growth of the Given Compound(s) at 2.23 ppm ([2]; natamycin series) | % of Growth of the Given Compound(s) at 1.12 ppm (Saccharomyces cerevisiae; natamycin series, each component 1.12 ppm final, 30° C. overnight) | % of Growth of the Given Compound(s) at 1.12 ppm (Geotrichum candidum; nystatin series, each component 1.12 ppm final) | % of Growth of the Given Compound(s) at 2.23 ppm ([2]; nystatin series) | % of Growth of the Given Compound(s) at 0.56 ppm (Saccharomyces cerevisiae; nystatin series, each component 0.56 ppm final) |
| --- | --- | --- | --- | --- | --- | --- | --- | --- | --- | --- |
| C[C@@H]1C/C=C/C=C/C=C/C=C/[C@H](O[C@@H]2O[C@H](C)[C@@H](O)[C@H](N)[C@@H]2O)C[C@@H]2O[C@](O)(C[C@@H](O)C[C@H]3O[C@@H]3/C=C/C(=O)O1)C[C@H](O)[C@H]2C(=O)O [Natamycin, natamycin] | 110.4% | 102% | 35.38% | 22.1% | 77.89% | 57.4% | 97.4% | – | – | – |
| C[C@@H]1[C@H](O)[C@@H](C)/C=C/C=C/CC/C=C/C=C/C=C/C=C/C(O[C@H]2O[C@H](C)[C@@H](O)[C@H](N)[C@@H]2O)CC2O[C@](O)(CC(O)C(O)CCC(O)CC(O)CC(O)CC(=O)O[C@H]1C)CC(O)C2C(=O)O (stereo partly shown) [Nystatin, nystatin] | – | – | – | – | – | – | – | 96.2% | 30.5% | 96.5% |
